# Measured values published in patent publication US11786839B2, “Eutectic extract formation and purification” (Givaudan France Naturals SAS, priority 2018, dated 2023).
# Experiments:
# [1] = Oxygen radical absorbance capacity (ORAC) method
# Procedure: Test of Physico-Chemical Efficacy as Antioxidant—Oxygen Radical Absorbance Capacity (ORAC) Method
# Phosphate buffer solutions (pH 7.2) containing the desired concentrations of eutectic extracts were prepared. Fifty millilitres of each solution were transferred by multi-channel pipette into a Fluotrac 96-well microplate (Greiner).
# To improve the repeatability, the microplate was pre-heated at 37° C. under orbital stirring at 1,200 rpm in a temperature-controlled thermoshaker (PHMT series, Grant Instruments Ltd, Shepreth, England) for 20 minutes.
# 50 μL of AAPH solution in freshly prepared phosphate buffer solution was then added using a multi-channel pipette.
# A drop in fluorescence to 515 nm (λex: 490 nm) was immediately recorded. Measurements were then taken every minute for 2 hours at 37±0.1° C. with 5 seconds of stirring before each measurement using a microplate reader.
# [2] = Conjugated autoxidizable triene (CAT) assay; format: biochemical
# Procedure: Antioxidant solutions were prepared as follows: a methanol solution of eutectic extract or Trolox (reference) was prepared at the desired concentration. […] Various volumes of this solution (25, 50, 75, and 100 μL) were then added to 24.9 mL of phosphate buffer solution (PBS), pH 7.2, and then filled to 25.0 mL with pure methanol (75, 50, 25, and 0 μL, respectively). In this way, all buffered solutions of eutectic extract contained the same methanol volume (100 μL), which minimizes any possible bias among samples. Samples of these solutions (50 μL/well) were transferred using a multichannel micropipet into UV-Star 96-well microplate (Greiner, Frickenhausen, Germany) (absorbance at 273 nm=0.03). The microplate was then prewarmed and stirred in a thermostated shaker (PHMT Grant Instruments, […], England) at 37° C. for 5 min at 1,200 rpm. […] Each well was then filled with 100 μL of this tung oil-in-PBS emulsion. To improve repeatability, the microplate was then immediately pre-warmed and shaken, sheltered from light, in a thermostated shaker (PHMT Grant Instruments) at 37° C. for 1 min at 1,200 rpm. Fifty microliters of a freshly prepared AAPH solution in PBS (4 mM) was added with a multi-channel micropipet. […] The progress of reactions was immediately monitored by recording the decrease in absorbance at 273 nm. […] Each experiment was performed in triplicate (three wells), and results were expressed as the mean of CAT value (see below) ±SD. Similarly, to the ORAC assay, the antioxidant value of a sample was calculated through the difference between the area under the curve of this sample and that of the blank (without eutectic extract). The result of this operation gave the net area under the curve (AUC) which was then plotted on a graph as a function of the concentration. Only the linear part of the curve was taken into account to calculate the slope which was then divided by the slope of the Trolox (standard) calculated in the same conditions and analyzed on the same microplate. As such, CAT values were expressed as μmol Trolox equivalent/g eutectic extract.
# [3] = Table 2, dried rosemary powder eutectic extracts
# [4] = Table 1, fresh rosemary eutectic extracts
SMILES,"ORAC value [1, 3] [μmol TE/g]","CAT value [2, 3] [μmol TE/g]",ORAC method result in words ([1]; pure substance),"ORAC value [1, 4] [μmol TE/g]","CAT value [2, 4] [μmol TE/g]"
"CCCCn1cc[n+](C)c1.[Cl-] [BmimCl alone, 1-butyl-3-methylimidazolium chloride]",1.1,0.24,–,–,–
CCCCCCCC/C=C\CCCCCCCC(=O)O [oleic acid],–,–,"positive value, although a modest one",–,–
"CC[N+](CC)(CC)Cc1ccccc1.[Cl-] [BTEAC alone, benzyltriethyl ammonium chloride]",2.8,0.7,–,2.8,0.7
"C[N+](C)(C)CCO.[Cl-] [ChCl alone, choline chloride]",0.3,0,–,0.3,0
